Reference: patent publication US11708348B2, “Protease inhibitors for treatment of coronavirus infections” (The Scripps Research Institute, priority 2021, dated 2023)
Where two headings read alike, the source gives them in different places.

Tested on: SARS-CoV-2 strain USA-WA1/2020
Assay: microbe, parasite or virus in culture
Type: cell-based
Conditions: HeLa-ACE2 cells, SARS-CoV-2 infection, 24 h, read-out: EC50, uM (Hela)
[1] = Severe acute respiratory syndrome coronavirus 2, HeLa-ACE2, 24 h, class symbols
[2] = Severe acute respiratory syndrome coronavirus 2, HeLa-ACE2, 24 h

SMILES	EC50 [1]	EC50 [2]	other results
CC(C)C[C@H](NC(=O)C(=O)Nc1ccc(F)cc1F)C(=O)N[C@@H](C[C@@H]1CCNC1=O)C(=O)COc1c(F)c(F)cc(F)c1F [Compound 78, N1-(2,4-difluorophenyl)-N2-((S)-4-methyl-1-oxo-1-(((S)-3-oxo-1-((S)-2-oxopyrrolidin-3-yl)-4-(2,3,5,6-tetrafluorophenoxy)butan-2-yl)amino)pentan-2-yl)oxalamide]	< 0.05 µM	–	–
Cc1cccc(C)c1NC(=O)C(=O)N[C@@H](CC(C)C)C(=O)N[C@@H](C[C@@H]1CCNC1=O)C(=O)COc1c(F)c(F)cc(F)c1F [Compound 64, N1-(2,6-dimethylphenyl)-N2-((S)-4-methyl-1-oxo-1-(((S)-3-oxo-1-((S)-2-oxopyrrolidin-3-yl)-4-(2,3,5,6-tetrafluorophenoxy)butan-2-yl)amino)pentan-2-yl)oxalamide]	< 0.05 µM	–	–
O=C(Nc1ccc(Cl)cc1F)C(=O)N1CC2(CC2)C[C@H]1C(=O)N[C@@H](C[C@@H]1CCNC1=O)C(=O)COC(F)(F)F [Compound 591, (S)-5-(2-((4-chloro-2-fluorophenyl)amino)-2-oxoacetyl)-N-((S)-3-oxo-1-((S)-2-oxopyrrolidin-3-yl)-4-(trifluoromethoxy)butan-2-yl)-5-azaspiro[2.4]-heptane-6-carboxamide]	–	< 0.05 µM	–
CC[C@@H](NC(=O)OC(C)(C)C)C(=O)N1C[C@H]2[C@@H]([C@H]1C(=O)N[C@@H](CC1CCNC1=O)C(=O)COC(F)(F)F)C2(C)C (stereo in doubt) [Compound 438, tert-butyl ((R)-1-((1R,2S,5S)-6,6-dimethyl-2-(((S)-3-oxo-1-((S)-2-oxopyrrolidin-3-yl)-4-(trifluoromethoxy)butan-2-yl)carbamoyl)-3-azabicyclo[3.1.0]-hexan-3-yl)-1-oxobutan-2-yl)carbamate]	–	< 0.05 µM	–
O=C1NCC[C@H]1C[C@H](NC(=O)[C@@H]1CC2(CC2)CN1C(=O)C(O)c1ccc(F)c(F)c1)C(=O)COC(F)(F)F (stereo partly drawn) [Compound 400, (6S)-5-(2-(3,4-difluorophenyl)-2-hydroxyacetyl)-N-((S)-3-oxo-1-((S)-2-oxopyrrolidin-3-yl)-4-(trifluoromethoxy)butan-2-yl)-5-azaspiro[2.4]heptane-6-carboxamide]	0.05 to 0.2 µM	–	–
CC(C)C[C@H](NC(=O)C(=O)Nc1cccnc1C(F)(F)F)C(=O)N[C@@H](C[C@@H]1CCNC1=O)C(=O)COc1c(F)c(F)cc(F)c1F [Compound 48, N1-((S)-4-methyl-1-oxo-1-(((S)-3-oxo-1-((S)-2-oxopyrrolidin-3-yl)-4-(2,3,5,6-tetrafluorophenoxy)butan-2-yl)amino)pentan-2-yl)-N2-(2-(trifluoromethyl)-pyridin-3-yl)oxalamide]	< 0.05 µM	–	–
CC(C)C[C@H](NC(=O)C(=O)NC1(CF)CC1)C(=O)N[C@@H](C[C@@H]1CCNC1=O)C(=O)COC(F)(F)F [Compound 254, Nl-(l-(fluoromethyl)-cyclopropyl)-N2-((S)-4-methyl-1-oxo-1-(((S)-3-oxo-1-((S)-2-oxopyrrolidin-3-yl)-4-(trifluoromethoxy)butan-2-yl)amino)pentan-2-yl)oxalamide]	< 0.05 µM	–	–
CC(C)C[C@H](NC(=O)C(=O)NC1CCC1)C(=O)N[C@@H](C[C@@H]1CCNC1=O)C(=O)COC(F)(F)F [Compound 221, N1-cyclobutyl-N2-((S)-4-methyl-1-oxo-1-(((S)-3-oxo-1-((S)-2-oxopyrrolidin-3-yl)-4-(trifluoromethoxy)butan-2-yl)amino)pentan-2-yl)oxalamide]	< 0.05 µM	–	–
O=C1NCC[C@H]1C[C@H](NC(=O)[C@@H]1C[C@H]2C[C@H]2N1C(=O)[C@@H]1CCCO1)C(=O)COC(F)(F)F [Compound 304, (1R,3S,5R)-N-(3-oxo-1-((S)-2-oxopyrrolidin-3-yl)-4-(trifluoromethoxy)butan-2-yl)-2-((S)-tetrahydrofuran-2-carbonyl)-2-azabicyclo[3.1.0]-hexane-3-carboxamide]	–	–	EC50 (Severe acute respiratory syndrome coronavirus 2, HeLa-ACE2, 24 h, bound printed in cell): > 1 µM
CC(C)C[C@H](NC(=O)C(=O)N[C@@H]1CCCOC1)C(=O)N[C@@H](C[C@@H]1CCNC1=O)C(=O)COc1c(F)c(F)cc(F)c1F [Compound 133, N1-((S)-4-methyl-1-oxo-1-(((S)-3-oxo-1-((S)-2-oxopyrrolidin-3-yl)-4-(2,3,5,6-tetrafluorophenoxy)butan-2-yl)amino)pentan-2-yl)-N2-((R)-tetrahydro-2H-pyran-3-yl)oxalamide]	0.05 to 0.2 µM	–	–
CC(C)C[C@H](NC(=O)C1CC2(CC2)CO1)C(=O)N[C@@H](C[C@@H]1CCNC1=O)C(=O)COC(F)(F)F (stereo partly drawn) [Compound 789, N-((S)-4-methyl-1-oxo-1-(((S)-3-oxo-1-((S)-2-oxopyrrolidin-3-yl)-4-(trifluoromethoxy)butan-2-yl)amino)pentan-2-yl)-5-oxaspiro[2.4]heptane-6-carboxamide]	–	< 0.05 µM	–
CC(C)(C)[C@H](NC(=O)OCc1ccccc1)C(=O)N1C[C@H]2[C@@H]([C@H]1C(=O)N[C@@H](C[C@@H]1CCNC1=O)C(=O)COC(F)(F)F)C2(C)C [Compound 620, benzyl ((S)-1-((1R,2S,5S)-6,6-dimethyl-2-(((S)-3-oxo-1-((S)-2-oxopyrrolidin-3-yl)-4-(trifluoromethoxy)butan-2-yl)carbamoyl)-3-azabicyclo[3.1.0]hexan-3-yl)-3,3-dimethyl-1-oxobutan-2-yl)carbamate]	–	< 0.05 µM	–
Cc1ccccc1NC(=O)C(=O)N[C@@H](CC1CC1)C(=O)N[C@@H](C[C@@H]1CCNC1=O)C(=O)COC(F)(F)F [Compound 507, N1-((S)-3-cyclopropyl-1-oxo-1-(((S)-3-oxo-1-((S)-2-oxopyrrolidin-3-yl)-4-(trifluoromethoxy)butan-2-yl)amino)propan-2-yl)-N2-(o-tolyl)oxalamide]	–	< 0.05 µM	–
COC(=O)N[C@H](C(=O)N1CC2(CC2)C[C@H]1C(=O)N[C@@H](C[C@@H]1CCNC1=O)C(=O)COC(F)(F)F)C(C)(C)C [Compound 433, methyl ((S)-3,3-dimethyl-1-oxo-1-((S)-6-(((S)-3-oxo-1-((S)-2-oxopyrrolidin-3-yl)-4-(trifluoromethoxy)butan-2-yl)carbamoyl)-5-azaspiro[2.4]heptan-5-yl)butan-2-yl)carbamate]	–	0.05 to 0.2 µM	–
CC(C)C[C@H](NC(=O)OCCCc1cccc(Cl)c1)C(=O)N[C@@H](C[C@@H]1CCNC1=O)C(=O)COc1c(F)c(F)cc(F)c1F [Compound 128, 3-(3-chlorophenyl)propyl ((S)-4-methyl-1-oxo-1-(((S)-3-oxo-1-((S)-2-oxopyrrolidin-3-yl)-4-(2,3,5,6-tetrafluorophenoxy)butan-2-yl)amino)pentan-2-yl)carbamate]	–	–	EC50 (Severe acute respiratory syndrome coronavirus 2, HeLa-ACE2, 24 h, cells given as a bound): > 1 µM
CC(C)C[C@H](NC(=O)C(=O)NC1CCC1)C(=O)N[C@@H](C[C@@H]1CCNC1=O)C(=O)COc1c(F)c(F)cc(F)c1F [Compound 124, N1-cyclobutyl-N2-((S)-4-methyl-1-oxo-1-(((S)-3-oxo-1-((S)-2-oxopyrrolidin-3-yl)-4-(2,3,5,6-tetrafluorophenoxy)butan-2-yl)amino)pentan-2-yl)oxalamide]	0.05 to 0.2 µM	–	–
CC(C)C[C@H](NC(=O)c1cc(-c2ccccc2)on1)C(=O)N[C@@H](C[C@@H]1CCNC1=O)C(=O)COc1c(F)c(F)cc(F)c1F [Compound 70, N-((S)-4-methyl-1-oxo-1-(((S)-3-oxo-1-((S)-2-oxopyrrolidin-3-yl)-4-(2,3,5,6-tetrafluoro-phenoxy)butan-2-yl)amino)pentan-2-yl)-5-phenylisoxazole-3-carboxamide]	0.2 to 0.5 µM	–	–
O=C1NCC[C@H]1C[C@H](NC(=O)[C@@H]1[C@H]2CCC[C@H]2CN1C(=O)c1noc2ccc(Cl)cc12)C(=O)COC(F)(F)F [Compound 659, (1S,3aR,6aS)-2-(5-chlorobenzo[d]isoxazole-3-carbonyl)-N-((S)-3-oxo-1-((S)-2-oxopyrrolidin-3-yl)-4-(trifluoromethoxy)butan-2-yl)octahydrocyclopenta[c]pyrrole-1-carboxamide]	–	< 0.05 µM	–
O=C1NCC[C@H]1C[C@H](NC(=O)[C@@H]1[C@H]2CCC[C@H]2CN1C(=O)C1CC2(CC2)CO1)C(=O)COC(F)(F)F (stereo partly drawn) [Compound 295, (1S,3aR,6aS)-N-((S)-3-oxo-1-((S)-2-oxopyrrolidin-3-yl)-4-(trifluoromethoxy)butan-2-yl)-2-(5-oxaspiro[2.4]heptane-6-carbonyl)octahydro-cyclopenta[c]pyrrole-1-carboxamide]	0.05 to 0.2 µM	–	–
COc1cccc2[nH]c(C(=O)N[C@@H](CC(C)C)C(=O)N[C@@H](C[C@@H]3CCNC3=O)C(=O)COc3c(F)cccc3F)cc12 [Compound 7, N-((S)-1-(((S)-4-(2,6-difluorophenoxy)-3-oxo-1-((S)-2-oxopyrrolidin-3-yl)butan-2-yl)amino)-4-methyl-1-oxopentan-2-yl)-4-methoxy-1H-indole-2-carboxamide]	–	–	EC50 (class symbols): 0.2 to 0.5 µM
O=C(Nc1ccccc1F)C(=O)N[C@@H](CCC1CCCCC1)C(=O)N[C@@H](C[C@@H]1CCNC1=O)C(=O)COc1c(F)c(F)cc(F)c1F [Compound 108, N1-((S)-4-cyclohexyl-1-oxo-1-(((S)-3-oxo-1-((S)-2-oxopyrrolidin-3-yl)-4-(2,3,5,6-tetrafluorophenoxy)butan-2-yl)amino)butan-2-yl)-N2-(2-fluorophenyl)oxalamide]	0.2 to 0.5 µM	–	–
C=CC[C@H](NC(=O)C(=O)Nc1ccccc1)C(=O)N[C@@H](C[C@@H]1CCNC1=O)C(=O)COc1c(F)c(F)cc(F)c1F [Compound 58, N1-((S)-1-oxo-1-(((S)-3-oxo-1-((S)-2-oxopyrrolidin-3-yl)-4-(2,3,5,6-tetrafluorophenoxy)butan-2-yl)amino)pent-4-en-2-yl)-N2-phenyloxalamide]	0.2 to 0.5 µM	–	–
